Target: T1, hOX2R (Homo sapiens, UniProt O43614)
T1 construct: expressed in transfected cells; host or cells: CHO cells (G418 selection)
T1 sequence (O43614 1-444): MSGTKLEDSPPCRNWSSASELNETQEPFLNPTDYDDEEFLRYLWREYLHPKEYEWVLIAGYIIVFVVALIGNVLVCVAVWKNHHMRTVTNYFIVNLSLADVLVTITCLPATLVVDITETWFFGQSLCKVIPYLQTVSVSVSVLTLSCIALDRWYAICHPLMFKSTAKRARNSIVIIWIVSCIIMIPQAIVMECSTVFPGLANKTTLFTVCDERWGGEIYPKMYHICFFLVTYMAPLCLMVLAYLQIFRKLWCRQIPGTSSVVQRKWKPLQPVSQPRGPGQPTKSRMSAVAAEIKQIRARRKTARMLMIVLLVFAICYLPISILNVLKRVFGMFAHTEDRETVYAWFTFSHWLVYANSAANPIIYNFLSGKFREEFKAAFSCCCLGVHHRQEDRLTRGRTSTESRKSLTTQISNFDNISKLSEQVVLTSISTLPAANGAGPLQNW
Experiment: hOX2R IPone assay (orexin receptor agonism)
Type: cell-based
Settings: IPone readout; for hOX2R_Ipone max %act: maximal activation; for EC50: orexin receptor agonist, read-out: hOX2R_IPone EC50

Row | hOX2R_Ipone max %act | EC50 | SMILES
1 | 101.7% | 20.9 nM | CCN1C(=O)N[C@@H](C(F)(F)F)CCCCCOc2nc(cn3ccnc23)-c2cc(ncc2OC)[C@H]1C [Example 77, (12R,16R)-13-ethyl-8-methoxy-12-methyl-16-(trifluoromethyl)-12,13,16,17,18,19,20, 21-octahydro-6,23-(azeno)-11,7-(metheno)imidazo[2,1-c][1,4,10,13,15]oxatet-raazacyclohenicosin-14(15H)-one]
2 | 100.7% | 119 nM | CCN1C(=O)NC(C2CC2)CCCCCOc2nc(cn3ccnc23)-c2cc(ncc2OC)[C@H]1C (single isomer, unassigned) [Example 57A]
3 | 100.9% | 1.4 nM | CCOCC1CCCCCOc2nc(cn3ccnc23)-c2cc(ncc2OC)[C@@H](C)N(CC)C(=O)N1 (single isomer, unassigned) [Example 62B]
4 | 103.5% | 11.9 nM | CCN1C(=O)NC(CCC(F)(F)F)CCOCCOc2nc(cn3ccnc23)-c2cc(ncc2OC)[C@H]1C (single isomer, unassigned) [Example 6A]
5 | 99.85% | 0.69 nM | CCN1C(=O)NC(C2CCOC2)CCCCCOc2nc(cn3ccnc23)-c2cc(ncc2OC)[C@H]1C (stereo partly drawn) [Example 189, (3R,E)-4-ethyl-25-methoxy-3-methyl-7-(tetrahydrofuran-3-yl)-13-oxa-4,6-diaza-1(6,8)-imidazo[1,2-a]pyrazina-2(4,2)-pyridinacyclotridecaphan-5-one]
6 | 98.8% | 335 nM | CCN1C(=O)N[C@@H](CCC(F)(F)F)C/C=C\COc2nc(cn3ncnc23)-c2cc(ncc2OC)C1C(F)(F)F (stereo partly drawn) [Example 33, (16S,18Z)-13-ethyl-8-methoxy-12-(trifluoromethyl)-16-(3,3,3-trifluoropropyl)-12,13,15,16,17,20-hexahydro-14H-6,22-(azeno)-11,7-(metheno) [1,2,4]triazolo[5,1-c] [1,4,10,13,15]oxatetra-azacycloicosin-14-one]
7 | 102% | 143 nM | CCCC1CCCCCOc2nc(cn3ccnc23)-c2cc(ncc2OC)[C@@H](C)N(CC)C(=O)N1 (single isomer, unassigned) [Example 54A]
8 | 97.88% | 1.08 nM | CCN1C(=O)N[C@@H](CCC(F)(F)F)CCCCCOc2nc(cn3ccnc23)-c2nc(cnc2OC)[C@H]1C [Example 139, (3R,7R,E)-4-ethyl-23-methoxy-3-methyl-7-(3,3,3-trifluoropropyl)-13-oxa-4,6-diaza-1(6,8)-imidazo[1,2-a]pyrazina-2(2,6)-pyrazinacyclotridecaphan-5-one]
9 | 99.62% | 2.2 nM | CCN1C(=O)N[C@@H](CCC(F)(F)F)CCCCCOc2nc(cn3ncnc23)-c2cc(ncc2OC)[C@H]1C [Example 82, (12R,16R)-13-ethyl-8-methoxy-12-methyl-16-(3,3,3-tri-fluoropropyl)-12,13, 16,17,18,19,20,21-octahydro-6,23-(azeno)-11,7-(metheno)[1,2,4]tria-zolo[5,1-c][1,4,10,13, 15]oxatetraazacyclo-henicosin-14(15H)-one]
10 | 101.2% | 0.6 nM | CCN1C(=O)NC(CC2CC2)CCCCCOc2nc(cn3ccnc23)-c2cc(ncc2OC)[C@H]1C (single isomer, unassigned) [Example 55B]
11 | 100.8% | 48.9 nM | CCN1C(=O)NC(COC)CCCCCOc2nc(cn3ccnc23)-c2cc(ncc2OC)[C@H]1C (single isomer, unassigned) [Example 58A]
12 | 97.6% | 49.9 nM | CCN1Cc2cccc(c2)-c2cn3ccnc3c(n2)OCCCC[C@H](CCC(F)(F)F)NC1=O [Example 43, (16R)-13-ethyl-16-(3,3,3-trifluoropropyl)-12,13,15,16,17,18,19,20-octahydro-14H-6,22-(azeno)-11,7-(metheno)imidazo[2,1-c][1,4,13,15]oxatriaza-cycloicosin-14-one]
13 | 101.2% | 0.9 nM | CCN1C(=O)N[C@@H](CCC(F)(F)F)CCCCCOc2nc(cn3ccnc23)-c2cc(nc3ccoc23)C1C (single isomer, unassigned) [Example 74B]
14 | 99.78% | 25.4 nM | CCN1C(=O)N[C@@H](CCC(F)(F)F)CCCCCOc2nc(cn3ccnc23)C2=CN=C(S2)C1C (stereo partly drawn) [Example 95, (15R)-12-ethyl-11-methyl-15-(3,3,3-trifluoropropyl)-11,12,15,16,17,18,19, 20-octahydro-6,22-(azeno)-7,10-epithioimidazo[2,1-c][1,4,9,12,14]oxatet-raazacycloicosin-13(14H)-one]
15 | 99.7% | 1.7 nM | CCN1C(=O)N[C@@H](CCC(F)(F)F)CCCCCCc2cc(cn3ccnc23)-c2nc(ccc2OC)[C@H]1C [Example 106, (12R,16R)-13-ethyl-8-methoxy-12-methyl-16-(3,3,3-trifluoropropyl)-12,13,15,16,17,18,19, 20,21,22-decahydro-14H-11,7-(azeno)-6,23-(metheno) imidazo[1,2-1][1,3,12] triazacyclohenicosin-14-one]
16 | 101% | 3.68 nM | CCN1C(=O)NC(CCC(F)F)CCCCCOc2nc(cn3ncnc23)-c2cc(ncc2C)[C@H]1C (stereo partly drawn) [Example 201, (3R,E)-7-(3,3-difluoropropyl)-4-ethyl-25,3-dimethyl-13-oxa-4,6-diaza-1(6,8)-[1,2,4]triazolo[1,5-a]pyrazina-2(4,2)-pyridina-cyclotridecaphan-5-one]
17 | 99.31% | 2.33 nM | CCN1C(=O)N[C@@H](CCC(F)(F)F)CCCCCOc2cc(nn3c(C)cnc23)-c2cc(ncc2OC)[C@H]1C [Example 168, (3R,7R,E)-4-ethyl-25-methoxy-13,3-dimethyl-7-(3,3,3-trifluoropropyl)-13-oxa-4,6-diaza-1(6,8)-imidazo[1,2-b]pyridazina-2(4,2)-pyridinacyclotridecaphan-5-one]
18 | 100.8% | 101 nM | CCN1C(=O)N[C@@H](CCC(F)(F)F)CCCCCOc2nc(cn3ccnc23)-c2cccc(n2)C1C (stereo partly drawn) [Example 90, (16R)-13-ethyl-12-methyl-16-(3,3,3-trifluoropropyl)-12,13,16,17,18,19,20, 21-octahydro-6,23:11,7-di(azeno) imidazo[2,1-c][1,4, 13,15]oxatriazacyclo-henicosin-14(15H)-one]
19 | 100.5% | 4.2 nM | CCN1C(=O)NC(CCC(C)(C)F)CCCCCOc2nc(cn3ccnc23)-c2cc(ncc2OC)[C@H]1C (single isomer, unassigned) [Example 71A]
20 | 97% | 548 nM | CCC1CCCCCOc2nc(cn3ccnc23)-c2cc(ncc2OC)[C@@H](C)N(CC)C(=O)N1 (single isomer, unassigned) [Example 52A]
21 | 102.7% | 0.7 nM | CCN1C(=O)NC(CCC(C)F)CCCCCOc2nc(cn3ccnc23)-c2cc(ncc2OC)[C@H]1C (single isomer, unassigned) [Example 72B]
22 | 106.5% | 4.17 nM | CCN1C(=O)N[C@@H](c2nccnc2C)CCCCCOc2nc(cn3ccnc23)-c2cc(ncc2OC)[C@H]1C [Example 152, (3R,7R,E)-4-ethyl-25-methoxy-3-methyl-7-(3-methylpyrazin-2-yl)-13-oxa-4,6-diaza-1(6,8)-imidazo[1,2-a]pyrazina-2(4,2)-pyridinacyclotridecaphan-5-one]
23 | 103.3% | 5.1 nM | CCN1C(=O)NC(C(C)(C)C)CCCCCOc2nc(cn3ccnc23)-c2cc(ncc2OC)[C@H]1C (single isomer, unassigned) [Example 63B]
24 | 99.6% | 2.97 nM | CCN1C(=O)N[C@@H](CCC(C)(F)F)CCCCCOc2nc(cc3ncnn23)-c2cc(ncc2OC)[C@H]1C [Example 176]
25 | 101.1% | 0.6 nM | CCN1C(=O)NC(CC2CC(F)(F)C2)CCCCCOc2nc(cn3ccnc23)-c2cc(ncc2OC)[C@H]1C (single isomer, unassigned) [Example 69B]
26 | 102.5% | 13.8 nM | CCN1C(=O)N[C@@H](CCC(F)(F)F)CCCCCOc2nc(nn3cc(C)nc23)-c2cc(ncc2OC)[C@H]1C [Example 123, (3R,7R,E)-4-ethyl-25-methoxy-16,3-dimethyl-7-(3,3,3-trifluoropropyl)-13-oxa-4,6-diaza-1(2,4)-imidazo[2,1-f][1,2,4]triazina-2(4,2)-pyridinacyclotridecaphan-5-one]
27 | 100.9% | 0.7 nM | CCN1C(=O)N[C@@H](CC(F)(F)F)CCCCCOc2nc(cn3ccnc23)-c2cc(ncc2OC)[C@H]1C [Example 114, (12R,16R)-13-ethyl-8-methoxy-12-methyl-16-(2,2,2-trifluoroethyl)-12,13,16,17,18,19,20,21-octahydro-6,23-(azeno)-11,7-(metheno)imidazo[2,1-c][1,4,10,13,15]oxatetraazacyclohenicosin-14(15H)-one]

Row | SMILES | hOX2R_Ipone max %act | EC50
28 | CCN1C(=O)NCCCCCCOc2nc(cn3ccnc23)-c2cccc(c2)[C@H]1C [Example 12, (12R)-13-ethyl-12-methyl-12,13,16,17,18,19, 20,21-octahydro-6,23-(azeno)-11,7-(metheno) imidazo[2,1-c][1,4,13,15]oxa-triazacyclohenicosin-14(15H)-one] | 99.76% | 20.3 nM

Source: patent publication US12686690B2, “Macrocyclic urea orexin receptor agonists” (Merck Sharp & Dohme LLC, priority 2020, dated 2026)
